# Data: patent US10174023B2, “Heterocyclic-imidazole compounds, pharmaceutical compositions thereof, preparation method therefor and use thereof” (SHANGHAI HUILUN LIFE SCIENCE & TECHNOLOGY CO., LTD, priority 2015, dated 2019)
# pIC50: −log10 of the molar value. Read-outs that look alike come from different tables or passages of the source.
# How the values were obtained:
# MDA-MB-436 cells = experiment: Cell proliferation inhibition assay (CellTiter-Glo, 120 hrs); type: cell-based, human; conditions: 120 hrs incubation, read-out: ED50 (MDA-MB-436); for pIC50: Homo sapiens
# Method: Example 2. Cell Proliferation Inhibition Assay
# The proliferation inhibitory activity of the compound of the present invention on the breast cancer cell line MDA-MB-436 of triple negative phenotype was tested in vitro.
# 1. Tumor cell line MDA-MB-436 supplied from HD Biosciences (Shanghai) Co., Ltd., and passed the Mycoplasma detection.
# 7. CellTiter-Glo Luminescent Cell Viability Assay, Promega, Catalog #: G7571.
# Formulation of Compound Solutions
# 1. Each test compound was formulated into a 60 mM stock solution in DMSO, packaged, and stored in a freezer at −80°. The stock solution of each test compound was serially diluted in DMSO to give solutions at various concentration gradients, including 6 mM, 2 mM, 0.6 mM, 0.2 mM, 60 μM, and 20 μM.
# 2. Just before experiment, the formulated solution at various concentration gradients of each test compound was aseptically 100-fold diluted in the complete cell culture medium. In this case, the concentration gradients of the test compound included 60 μM, 20 μM, 6 μM, 2 μM, 0.6 μM, and 0.2 μM. These were 2× compound solutions, and could be used to treat the cells.
# 3. The stock solution of Compounds (1) to (21) and the control compound AZD2281 was serially diluted in DMSO to give solutions at various concentration gradients, including 20 μM, 2 μM, 0.2 μM, 0.02 μM, 0.002 μM, and 0.0002 μM. Before experiment, the formulated solution at various concentration gradients of each test compound was aseptically 100-fold diluted in the complete cell culture medium. The concentration gradients of the positive compound included 200 nM, 20 nM, 2 nM, 0.2 nM, 0.02 nM, and 0.002 nM. These were 2× compound solutions, and could be used to treat the cells.
# 1. One day before treatment with the compounds, the cells were inoculated into a 96-well plate at a density of 8000 cells/50 μl/well.
# 2. On the following day, the formulated 2× compound solutions were added, in accordance with a compound arrangement pattern, to the plate in an amount of 50 μl/well.
# 3. The plate was gently agitaged, and incubated for 120 hrs in an incubator at 37° C.
# 4. After incubation, the formulated reagent was added to the plate following instruction of the CellTiter Glo reagent, fully mixed, and incubated for 10 min at room temperature in the dark.
# 5. The plate was analyzed on a plate reader, the chemiluminescence was read, and the data was recorded.
# The reading of each well needs to be converted into cell viability. The cell viability can be calculated using the following formula: […]
# The processed data was subjected to non-linear regression analysis by using the GraphPad Prism5 analysis software, to obtain a dose-response curve; and the median effective dose (ED50) of test compounds for the MDA-MB-436 cells was calculated.
# [1] = test system: Human breast cancer MX-1 cells; experiment: Tumor inhibition in nude mice tumor model transplanted with human breast cancer MX-1 cells; type: in vivo, BALB/cA-nude mice; conditions: MX-1 xenograft in nude mice, oral, 50 mg/kg, once a day, consecutive 21 days
# Method: (§1) Example 3. Test of Tumor Inhibition Effect of Compounds of the Present Invention in Mice The following experiments were conducted to evaluate and compare the effects of the present compound alone in mice tumor models transplanted with human breast cancer cell line MDA-MB-436, human breast cancer cell line MX-1 or human pancreatic cancer cell line CAPAN-1 in vivo.
# (§2) Test Compound: Example Compound (4)
# (§3) BALB/cA-nude mice, 6-7 weeks, female, available from Shanghai SLAC Laboratory Animal Co., Ltd. Certificate number: SCXK (Shanghai) 2012-0002. Breeding environment: SPF grade.
# (§4) The Nude mice were subcutaneously inoculated with human breast cancer MDA-MB-436 cells, human breast cancer MX-1 cells or human pancreatic cancer CAPAN-1 cells. After the tumor grew to 100-200 mm^3, the animals were grouped at random (D0). The tumor volume was measured twice or thrice a week, the body weight of the mice was weighed, and the data was recorded. The tumor volume (V) is calculated by using a formula below: V=½×a×b^2 […]
# (§5) in which a, and b denote the length and width. T/C(%)=(T−T0)/(C−C0)×100 in which T are C are the tumor volumes at the end of the experiment; and T0 and C0 are the tumor volumes at the beginning of the experiment.
# [2] = test system: Human breast cancer MDA-MB-436 cells; experiment: Tumor inhibition in nude mice tumor model transplanted with human breast cancer MDA-MB-436 cells; type: in vivo, BALB/cA-nude mice; conditions: MDA-MB-436 xenograft in nude mice, oral, 30 mg/kg, once a day, consecutive 14 days
# Method: as §1, §2, §3, §4, §5
# [3] = test system: Human pancreatic cancer CAPAN-1 cells; experiment: Tumor inhibition in nude mice tumor model transplanted with human pancreatic cancer CAPAN-1 cells; type: in vivo, BALB/cA-nude mice; conditions: CAPAN-1 xenograft in nude mice, oral, 50 mg/kg, once a day, consecutive 21 days
# Method: as §1, §2, §3, §4, §5
Structure (SMILES),pIC50 (MDA-MB-436 cells),other results
"O=C(c1cc(Cc2n[nH]c(=O)c3ccccc23)ccc1C(F)(F)F)N1CCN(c2ccc3[nH]cnc3n2)CC1 [Compound (15), 4-(3-(4-(1H-imidazo[4,5-b]pyridin-5-yl)piperazine-1-carbonyl)-4-trifluoromethylbenzyl)phthalazin-1(2H)-one]",4.64,–
"O=C(c1cc(Cc2n[nH]c(=O)c3ccccc23)ccc1C(F)(F)F)N1CCN(c2cc3nc[nH]c3cn2)CC1 [Compound (19), 4-(3-(4-(3H-imidazo[4,5-c]pyridin-6-yl)piperazine-1-carbonyl)-4-trifluoromethylbenzyl)phthalazin-1(2H)-one]",< 4.60,–
O=C(c1cccc(Cc2n[nH]c(=O)c3ccccc23)c1)N1CCN(c2ccc3[nH]c(=O)[nH]c3n2)CC1 [Compound (9)],< 4.60,–
"O=C(c1cccc(Cc2n[nH]c(=O)c3ccccc23)c1)N1CCN(c2ccc3[nH]cnc3n2)CC1 [Compound (13), 4-(3-(4-(1H-imidazo[4,5-b]pyridin-5-yl)piperazine-1-carbonyl)benzyl)phthalazin-1(2H)-one]",6.15,–
O=C(c1cccc(Cc2n[nH]c(=O)c3ccccc23)c1)N1CCN(c2ccc3[nH]c(C(F)(F)F)nc3n2)CC1 [Compound (12)],–,IC50 (MDA-MB-436 cells): >25 µM
"COc1ccc(Cc2n[nH]c(=O)c3ccccc23)cc1C(=O)N1CCN(c2cnc3[nH]cnc3c2)CC1 [Compound (21), 4-(3-(4-(3H-imidazo[4,5-b]pyridin-6-yl)piperazine-1-carbonyl)-4-methoxybenzyl)phthalazin-1(2H)-one]",< 4.60,–
"Cc1nc2nc(N3CCN(C(=O)c4cc(Cc5n[nH]c(=O)c6ccccc56)ccc4F)CC3)ccc2[nH]1 [Compound (2), 4-(4-fluoro-3-(4-(2-methyl-1H-imidazo[4,5-b]pyridin-5-yl)piperazine-1-carbonyl)benzyl)phthalazin-1(2H)-one]",< 4.60,–
"O=C(c1cc(Cc2n[nH]c(=O)c3ccccc23)ccc1F)N1CCN(c2ccc3[nH]c(=O)[nH]c3n2)CC1 [Compound (5), 4-(4-fluoro-3-(4-(2-oxo-2,3-dihydro-1H-imidazo[4,5-b]pyridin-5-yl)piperazine-1-carbonyl)benzyl)phthalazin-1(2H)-one]",< 4.60,–
"COc1ccc(Cc2n[nH]c(=O)c3ccccc23)cc1C(=O)N1CCN(c2ccc3[nH]cnc3n2)CC1 [Compound (14), 4-(3-(4-(1H-imidazo[4,5-b]pyridin-5-yl)piperazine-1-carbonyl)-4-methoxybenzyl)phthalazin-1(2H)-one]",5.17,–
"O=C(c1cc(Cc2n[nH]c(=O)c3ccccc23)ccc1F)N1CCN(c2ccc3[nH]nnc3n2)CC1 [Compound (1), 4-(3-(4-(1H-[1,2,3]triazolo[4,5-b]pyridin-5-yl)piperazine-1-carbonyl)-4-fluorobenzyl)phthalazin-1(2H)-one]",< 4.60,–
O=C(c1cc(Cc2n[nH]c(=O)c3ccccc23)ccc1F)N1CCN(c2ccc3[nH]c(C(F)(F)F)nc3n2)CC1 [Compound (3)],–,IC50 (MDA-MB-436 cells): >25 µM
"Cc1nc2nc(N3CCN(C(=O)c4cccc(Cc5n[nH]c(=O)c6ccccc56)c4)CC3)ccc2[nH]1 [Compound (11), 4-(3-(4-(2-methyl-1H-imidazo[4,5-b]pyridin-5-yl)piperazine-1-carbonyl)benzyl)phthalazin-1(2H)-one]",< 4.60,–
"O=C(c1cc(Cc2n[nH]c(=O)c3ccccc23)ccc1C(F)(F)F)N1CCN(c2ccc3[nH]nnc3n2)CC1 [Compound (16), 4-(3-(4-(1H-[1,2,3]triazolo[4,5-b]pyridin-5-yl)piperazine-1-carbonyl)-4-trifluoromethylbenzyl)phthalazin-1(2H)-one]",< 4.60,–
"O=C(c1cc(Cc2n[nH]c(=O)c3ccccc23)ccc1F)N1CCN(c2ncc3[nH]cnc3n2)CC1 [Compound (8), 4-(3-(4-(7H-purin-2-yl)piperazine-1-carbonyl)-4-fluorobenzyl)phthalazin-1(2H)-one]",5.85,–
"O=C(c1cc(Cc2n[nH]c(=O)c3ccccc23)ccc1F)N1CCN(c2cnc3[nH]cnc3c2)CC1 [Compound (7), 4-(3-(4-(3H-imidazo[4,5-b]pyridin-6-yl)piperazine-1-carbonyl)-4-fluorobenzyl)phthalazin-1(2H)-one]",< 4.60,–
"O=C(c1cc(Cc2n[nH]c(=O)c3ccccc23)ccc1F)N1CCN(c2ccc3[nH]cnc3n2)CC1 [Compound (4), 4-(3-(4-(1H-imidazo[4,5-b]pyridin-5-yl)piperazine-1-carbonyl)-4-fluorobenzyl)phthalazin-1(2H)-one]",6.15,Tumor inhibition [1]: 193%; Tumor inhibition [2]: 191%; Tumor inhibition [3]: 128%
"O=C(c1cc(Cc2n[nH]c(=O)c3ccccc23)ccc1C(F)(F)F)N1CCN(c2ccc3[nH]c(=O)[nH]c3n2)CC1 [Compound (17), 4-(3-(4-(2-oxo-2,3-dihydro-1H-imidazo[4,5-b]pyridin-5-yl)piperazine-1-carbonyl)-4-trifluoromethylbenzyl)phthalazin-1(2H)-one]",< 4.60,–
"O=C(c1cc(Cc2n[nH]c(=O)c3ccccc23)ccc1F)N1CCN(c2cc3nc[nH]c3cn2)CC1 [Compound (6), 4-(3-(4-(3H-imidazo[4,5-c]pyridin-6-yl)piperazine-1-carbonyl)-4-fluorobenzyl)phthalazin-1(2H)-one]",4.74,–
"O=C(c1cc(Cc2n[nH]c(=O)c3ccccc23)ccc1C(F)(F)F)N1CCN(c2cnc3[nH]cnc3c2)CC1 [Compound (20), 4-(3-(4-(3H-imidazo[4,5-b]pyridin-6-yl)piperazine-1-carbonyl)-4-trifluoromethylbenzyl)phthalazin-1(2H)-one]",< 4.60,–
"O=C(c1cccc(Cc2n[nH]c(=O)c3ccccc23)c1)N1CCN(c2ccc3[nH]nnc3n2)CC1 [Compound (10), 4-(3-(4-(1H-[1,2,3]triazolo[4,5-b]pyridin-5-yl)piperazine-1-carbonyl)-benzyl)phthalazin-1 (2H)-one]",< 4.60,–
"O=C(c1cc(Cc2n[nH]c(=O)c3ccccc23)ccc1F)N1CCN(C(=O)C2CC2)CC1 [AZD2281, reference compound]",< 4.60,Tumor inhibition [1]: 13%; Tumor inhibition [2]: 83%; Tumor inhibition [3]: 57%
"COc1ccc(Cc2n[nH]c(=O)c3ccccc23)cc1C(=O)N1CCN(c2cc3nc[nH]c3cn2)CC1 [Compound (18), 4-(3-(4-(3H-imidazo[4,5-c]pyridin-6-yl)piperazine-1-carbonyl)-4-methoxybenzyl)phthalazin-1(2H)-one]",< 4.60,–
